Source: patent US7560571B2, “Substituted pyrroles and imidazoles, compositions containing same, manufacturing process therefor and use thereof” (Aventis Pharma S.A., priority 2005, dated 2009)

What was measured:
[1] = molecular target: T1, human KDR enzyme (Homo sapiens, UniProt P35968); assay: KDR substrate phosphorylation inhibition, scintillation technique; assay type: biochemical; details: GST-KDR cytoplasmic domain, PLCγ substrate, 1 hour at 37° C.; read-out: KDR IC 50
T1 construct: The cytoplasmic domain of the human KDR enzyme was cloned in the form of a GST fusion; GST; made in house; host or cells: SF21 insect cells (baculovirus)
T1 sequence (P35968 786-1356 limits assumed): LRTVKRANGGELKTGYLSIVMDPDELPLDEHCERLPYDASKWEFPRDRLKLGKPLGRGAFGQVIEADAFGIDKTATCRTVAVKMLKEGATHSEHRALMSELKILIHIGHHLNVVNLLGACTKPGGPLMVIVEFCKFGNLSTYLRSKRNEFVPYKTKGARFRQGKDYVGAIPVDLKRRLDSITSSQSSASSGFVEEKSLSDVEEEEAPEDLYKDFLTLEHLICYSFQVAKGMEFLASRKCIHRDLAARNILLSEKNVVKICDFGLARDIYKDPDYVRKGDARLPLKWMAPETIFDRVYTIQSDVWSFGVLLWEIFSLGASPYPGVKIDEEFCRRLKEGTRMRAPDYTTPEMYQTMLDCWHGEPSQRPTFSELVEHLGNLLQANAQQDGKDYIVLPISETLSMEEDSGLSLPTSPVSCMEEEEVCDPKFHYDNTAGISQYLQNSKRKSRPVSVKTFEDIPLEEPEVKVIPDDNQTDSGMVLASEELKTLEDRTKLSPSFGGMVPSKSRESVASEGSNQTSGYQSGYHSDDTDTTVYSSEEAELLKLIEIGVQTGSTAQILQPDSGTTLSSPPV
Experimental: The inhibitory effect of the compounds is determined in an in vitro test of phosphorylation of substrate with the enzyme KDR via a scintillation technique (96-well plate, NEN).
The cytoplasmic domain of the human KDR enzyme was cloned in the form of a GST fusion in the pFastBac baculovirus expression vector. The protein was expressed in the SF21 cells and purified to about 60% homogeneity.
The KDR kinase activity is measured in 20 mM MOPS, 10 mM MgCl2, 10 mM MnCl2, 1 mM DTT, 2.5 mM EGTA, 10 mM b-glycerophosphate, pH=7.2, in the presence of 10 mM MgCl2, 100 μm Na3VO4, 1 mM NaF. 10 μl of the compound are added to 70 μL of kinase buffer containing 100 ng of KDR enzyme at 4° C. The reaction is initiated by adding 20 μL of solution containing 2 μg of substrate (SH2-SH3 fragment of PLCγ expressed in the form of a GST fusion protein), 2 μCi of γ^33P[ATP] and 2 μm of cold ATP. After incubation for 1 hour at 37° C., the reaction is stopped by adding 1 volume (100 μl) of 200 mM EDTA. The incubation buffer is removed, and the wells are washed three times with 300 μL of PBS. The radioactivity in each well is measured using a Top Count NXT radioactivity counter (Packard).
The background is determined by measuring the radioactivity in four different wells containing radioactive ATP and the substrate alone.
A total activity control is measured in four different wells containing all the reagents (γ^33P-[ATP], KDR and substrate PLCγ), but in the absence of compound.
The inhibition of the KDR activity with the compound of the invention is expressed as a percentage of inhibition of the control activity determined in the absence of compound.
Compound SU5614 (Calbiochem) (1 μm) is included in each plate as an inhibition control.

[2] = molecular target: T2, human Tie2 (Homo sapiens, UniProt Q02763); assay: Tie2 phosphorylation of PLC inhibition, FlashPlate radioactivity; assay type: biochemical; details: GST-Tie2, GST-PLC substrate, one hour at 37° C.; read-out: TIE2 IC 50
T2 construct: amino acids of the intracellular domain 776-1124; made in house; host or cells: baculovirus expression system (pFastBacGT)
T2 sequence (Q02763 776-1124): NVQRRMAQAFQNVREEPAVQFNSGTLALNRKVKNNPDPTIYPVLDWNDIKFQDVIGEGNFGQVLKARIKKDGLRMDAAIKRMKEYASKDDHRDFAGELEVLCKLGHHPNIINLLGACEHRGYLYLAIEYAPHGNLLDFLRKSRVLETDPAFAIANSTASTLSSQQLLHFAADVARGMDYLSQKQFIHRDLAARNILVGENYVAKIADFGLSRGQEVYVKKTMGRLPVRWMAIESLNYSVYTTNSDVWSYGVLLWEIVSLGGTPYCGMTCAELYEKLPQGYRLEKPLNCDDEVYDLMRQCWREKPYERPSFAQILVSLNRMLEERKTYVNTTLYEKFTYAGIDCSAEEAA
Experimental: The coding sequence of human Tie2 corresponding to the amino acids of the intracellular domain 776-1124 was generated by PCR using the cDNA isolated from a human placenta as a model. This sequence was introduced into a pFastBacGT baculovirus expression vector in the form of a GST fusion protein.
The inhibitory effect of the molecules is determined in a test of phosphorylation of PLC with Tie2 in the presence of GST-Tie2 purified to about 80% homogeneity. The substrate is composed of the SH2-SH3 fragments of PLC expressed in the form of a GST fusion protein.
The kinase activity of Tie2 is measured in a MOPS 20 mM pH 7.2 buffer, containing 10 mM MgCl2, 10 mM MnCl2, 1 mM DTT, 10 mM of glycerophosphate. In a 96-well FlashPlate plate maintained on ice, a reaction mixture is deposited, composed of 70 μL of kinase buffer containing 100 ng of enzyme GST-Tie2 per well. Next, 10 μL of the test molecule diluted in DMSO to a maximum concentration of 10% are added. For a given concentration, each measurement is performed four times. The reaction is initiated by adding 20 μL of solution containing 2 μg of GST-PLC, 2 μm of cold ATP and 1 μCi of ^33P[ATP]. After incubation for one hour at 37° C., the reaction is stopped by adding 1 volume (100 μl) of EDTA 200 mM. After removal of the incubation buffer, the wells are washed three times with 300 μL of PBS. The radioactivity is measured on a MicroBeta1450 Wallac.
The inhibition of the Tie2 activity is calculated and expressed as a percentage of inhibition relative to the control activity determined in the absence of compound.

[3] = molecular target: T3, human FAK (Homo sapiens, UniProt Q05397); assay: FAK autophosphorylation inhibition, time-resolved fluorescence test (HTRF); assay type: biochemical; details: autophosphorylation of the enzyme, 15 μM ATP, 1 hour at 37° C.; read-out: FAK IC 50
T3 construct: The whole cDNA of human FAK, the N-terminal end of which has been labelled with histidine; made in house; host or cells: baculovirus expression system (pFastBac HTc)
T3 sequence (Q05397 whole entry): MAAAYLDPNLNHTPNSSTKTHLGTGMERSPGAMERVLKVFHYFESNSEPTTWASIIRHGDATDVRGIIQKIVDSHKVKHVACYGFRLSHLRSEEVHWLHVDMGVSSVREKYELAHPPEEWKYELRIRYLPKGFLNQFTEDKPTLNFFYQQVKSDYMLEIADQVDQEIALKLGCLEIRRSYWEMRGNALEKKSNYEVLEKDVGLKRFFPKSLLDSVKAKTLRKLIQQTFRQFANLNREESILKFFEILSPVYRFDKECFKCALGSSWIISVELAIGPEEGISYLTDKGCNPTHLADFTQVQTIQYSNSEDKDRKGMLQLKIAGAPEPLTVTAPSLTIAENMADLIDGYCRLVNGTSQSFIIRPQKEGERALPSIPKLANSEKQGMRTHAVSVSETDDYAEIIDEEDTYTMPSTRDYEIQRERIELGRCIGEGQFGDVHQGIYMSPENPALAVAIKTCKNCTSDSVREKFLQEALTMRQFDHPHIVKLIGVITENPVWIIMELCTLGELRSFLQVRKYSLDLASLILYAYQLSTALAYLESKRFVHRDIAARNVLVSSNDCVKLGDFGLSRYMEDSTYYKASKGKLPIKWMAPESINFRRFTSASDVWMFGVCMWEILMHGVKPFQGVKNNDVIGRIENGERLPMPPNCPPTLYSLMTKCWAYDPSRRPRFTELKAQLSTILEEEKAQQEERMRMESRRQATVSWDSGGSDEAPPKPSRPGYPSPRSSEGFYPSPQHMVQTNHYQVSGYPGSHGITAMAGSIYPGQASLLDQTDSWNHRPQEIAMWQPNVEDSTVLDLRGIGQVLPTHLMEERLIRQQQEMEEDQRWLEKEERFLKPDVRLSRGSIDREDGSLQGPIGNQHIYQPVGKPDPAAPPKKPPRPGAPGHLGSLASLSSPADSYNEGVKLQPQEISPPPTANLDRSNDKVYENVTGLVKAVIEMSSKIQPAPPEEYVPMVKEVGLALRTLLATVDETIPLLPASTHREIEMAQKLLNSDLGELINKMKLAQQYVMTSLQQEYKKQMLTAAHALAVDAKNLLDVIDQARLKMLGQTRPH
Experimental: The inhibitory activity of the compounds on FAK is determined by measuring the inhibition of autophosphorylation of the enzyme using a time-resolved fluorescence test (HTRF).
The whole cDNA of human FAK, the N-terminal end of which has been labelled with histidine, was cloned in a pFastBac HTc baculovirus expression vector. The protein was expressed and purified to about 70% homogeneity.
The kinase activity is determined by incubating the enzyme (6.6 μg/mL) with different concentrations of test compound in a 50 mM Hepes pH=7.2, 10 mM MgCl2, 100 μm Na3VO4, 15 μM ATP buffer for 1 hour at 37° C. The enzymatic reaction is stopped by adding Hepes pH=7.0 buffer containing 0.4 mM KF, 133 mM EDTA, 0.1% BSA and the labelling is performed, for 1 to 2 hours at room temperature, by adding to this buffer an anti-Histidine antibody labelled with XL665 and a tyrosine phosphospecific monoclonal antibody conjugated to europium cryptate (Eu-K). […] The long-lasting signal specific for XL-665 is measured in a Packard Discovery plate counter. All the tests are performed in duplicate and the average of the two tests is calculated. The inhibition of the autophosphorylation activity of FAK with compounds of the invention is expressed as a percentage of inhibition relative to a control whose activity is measured in the absence of test compound. […]

Compound | melting point | IC50 [1] [nM] | IC50 [2] [nM] | IC50 [3] [nM]
Cl.NC(=O)c1[nH]cc(N)c1-c1ccc(NC(=O)Nc2cc(C(F)(F)F)ccc2F)cc1 | ~ 174 °C |  |  | 
NC(=O)c1[nH]ccc1-c1ccc(NC(=O)Nc2cc(C(F)(F)F)ccc2F)cc1 [Example 1, 3-{4-[3-(2-Fluoro-5-trifluoromethylphenyl)ureido]phenyl}-1H-pyrrole-2-carboxamide] |  | 115 | 13 | 2380
NC(=O)c1[nH]cc(NC(=O)Nc2cc(C(F)(F)F)ccc2F)c1-c1ccc(NC(=O)Nc2cc(C(F)(F)F)ccc2F)cc1 [Example 4, 4-[3-(2-Fluoro-5-trifluoromethylphenyl)ureido]-3-{4-[3-(2-fluoro-5-trifluoro-methylphenyl)ureido]phenyl}-1H-pyrrole-2-carboxamide] |  | 352 | 111 | 
CC(=O)Nc1c[nH]c(C(N)=O)c1-c1ccc(NC(=O)Nc2cc(C(F)(F)F)ccc2F)cc1 [Example 5, 4-Acetylamino-3-{4-[3-(2-fluoro-5-trifluoromethylphenyl)ureido]phenyl}-1H-pyrrole-2-carboxamide] | 228.5 °C |  |  | 
CN(C)CC(=O)Nc1c[nH]c(C(N)=O)c1-c1ccc(NC(=O)Nc2cc(C(F)(F)F)ccc2F)cc1 [Example 6, 4-(2-Dimethylaminoacetylamino)-3-{4-[3-(2-fluoro-5-trifluoromethylphenyl)-ureido]phenyl}-1H-pyrrole-2-carboxamide] | 178 °C |  |  | 
NC(=O)c1[nH]cc(NC(=O)c2ccccc2)c1-c1ccc(NC(=O)Nc2cc(C(F)(F)F)ccc2F)cc1 [Example 7, 4-Benzoylamino-3-{4-[3-(2-fluoro-5-trifluoromethylphenyl)ureido]phenyl}-1H-pyrrole-2-carboxamide] | 239.7 °C |  |  | 

Continued, values first:

melting point | IC50 [1] [nM] | IC50 [2] [nM] | IC50 [3] [nM] | Compound
179 °C | 23 | 4 |  | CCOC(=O)c1c[nH]c(C(N)=O)c1-c1ccc(NC(=O)Nc2cc(C(F)(F)F)ccc2F)cc1 [Example 9, Ethyl 5-carbamoyl-4-{4-[3-(2-fluoro-5-trifluoromethylphenyl)ureido]phenyl}-1H-pyrrole-3-carboxylate]
194 °C |  |  |  | NC(=O)c1[nH]cc(C(=O)O)c1-c1ccc(NC(=O)Nc2cc(C(F)(F)F)ccc2F)cc1 [Example 38, 5-Carbamoyl-4-{4-[3-(2-fluoro-5-trifluoromethylphenyl)ureido]phenyl}-1H-pyrrole-3-carboxylic acid]
196 °C |  |  |  | NC(=O)c1c[nH]c(C(N)=O)c1-c1ccc(NC(=O)Nc2cc(C(F)(F)F)ccc2F)cc1 [Example 40, 3-{4-[3-(2-Fluoro-5-trifluoromethylphenyl)ureido]phenyl}-1H-pyrrole-2,4-dicarboxamide]
 | 27 | 7 |  | NC(=O)c1[nH]cc(Cl)c1-c1ccc(NC(=O)Nc2cc(C(F)(F)F)ccc2F)cc1 [Example 44, 4-Chloro-3-{4-[3-(2-fluoro-5-trifluoromethylphenyl)ureido]phenyl}-1H-pyrrole-2-carboxamide]
325 °C |  |  |  | NC(=O)c1[nH]cnc1-c1ccc(NC(=O)Nc2cc(C(F)(F)F)ccc2F)cc1 [Example 46, 5-{4-[3-(2-Fluoro-5-trifluoromethylphenyl)ureido]phenyl}-3H-imidazole-4-carboxamide]
